Results from paper PMC7031696 (Cell chemical biology, 2019).
Entries after “also recorded” stand apart in the source; their conditions may differ. Like-named read-outs stand apart in the source and are kept apart here.

Tests used:
[1] = tested on: Plasmodium falciparum 3D7-A10 parasites; experiment: Stage specificity assay (8-h exposure of synchronized stages, IC50^8h); type: cell-based; details: for Ratio lowest IC50 8hr/IC50 72hr: 3D7-A10; for Stage of peak activity (Figure 6): period when the parasite was most susceptible (lowest IC50^8h)
[2] = tested on: asynchronous 3D7-A10 parasite cultures; experiment: Standard 72-h exposure asexual blood stage susceptibility assay (IC50^72h); type: cell-based, Plasmodium falciparum; details: read-out: Overall (72hr assay) Mean IC50 (IC50^72h); 72-h exposure, asynchronous 3D7-A10
[3] = read-out: Early trophozoites Mean IC50 (IC50^8h), 8-h exposure 16–24 hr, 3D7-A10, survival at 60 h
[4] = read-out: Late trophozoites Mean IC50 (IC50^8h), 8-h exposure 24–32 hr, 3D7-A10, survival at 60 h
[5] = read-out: Schizonts Mean IC50 (IC50^8h), 8-h exposure 32–40 hr, 3D7-A10, survival at 60 h
[6] = read-out: Early rings Mean IC50 (IC50^8h), 8-h exposure 0–8 hr, 3D7-A10, survival at 60 h
[7] = read-out: Late rings Mean IC50 (IC50^8h), 8-h exposure 8–16 hr, 3D7-A10, survival at 60 h

Compound	Ratio lowest IC50 8hr/IC50 72hr [1]	killing in stage specificity assay ([1]; 8-h exposures, survival curves)	Stage of peak activity (Figure 6) [1]	IC50 ([1]; read-out: Early rings IC50 (IC50^8h), 8-h exposure 0–8 hr, bound given in μM) [µM]	IC50 [1, 3] [µM]	IC50 ([1]; read-out: Late rings IC50 (IC50^8h), 8-h exposure 8–16 hr, bound given in μM) [µM]	IC50 [1, 4] [µM]	IC50 [1, 5] [µM]	Peak Activity (Table S1) ([1]; stage(s) with the lowest IC50^8h)	IC50 [2] [nM]	overall activity profile (stages on which active) ([1]; 8-h exposures)	IC50 [1, 6] [µM]	IC50 [1, 7] [µM]
CC(C)(C)c1ccc2c(c1)CN(Cc1ccc(Cl)cc1)CO2 [MMV000442]	4.7	incomplete killing at all asexual blood stages	trophozoites	> 8	0.176	> 8	0.197	0.503	Trophs	37.2			
CN(C)Cc1ccc(-c2cc3c(-c4ccc(CN(C)C)cc4)ccnc3[nH]2)cc1.O=C(O)C(F)(F)F [MMV022224]	2.7		rings and trophozoites		0.542		0.752	2.49		199	activity exclusively in rings and trophozoites but not in schizonts	0.838	0.845
CC(C)(C)NCc1cc(Nc2ccnc3cc(Cl)ccc23)c2c(c1O)CCCC2 [Naphtoquine, Naphthoquine, reference compound]	1.3		early rings; also recorded: ring stages		0.0195		0.0292	0.0428		3.2		0.0042	0.0081
Ferroquine [reference compound]	1.4		early rings; also recorded: ring stages		0.0232		0.0368	0.0493		3.5		0.0049	0.0109
